The record followed here is PubChem BioAssay (NCI).

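Results reflect a 48-hour exposure of cells in 96-well plates to compound at five concentrations. GI50: concentration for 50% inhibition of growth. The concentration for full growth arrest is given as TGI.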

What all share (test): NCI anticancer screen, dose series, 48 h
Test [1] relates to MOLT-4 leukemia.
The subject of test [2] is SK-MEL-5 melanoma.
In test [3] the test system is SNB-75 CNS.
For test [4], the system named is EKVX NSCLC.
The subject of test [5] is SK-OV-3 ovarian.
Test [6] has as its system UACC-257 melanoma.
In test [7] the test system is HL-60(TB) leukemia.
The subject of test [8] is U251 CNS.
In test [9] the test system is HCC-2998 colon.
The subject of test [10] is SR leukemia.

As to `CN(Cc1ccccc1)C1(N(C)Cc2ccccc2)CC1`, the TGI in test [1], in test [2], in test [3], in test [4], in test [5] and in test [6] was more than 100 µM in each case. The TGI in test [7], in test [8] and in test [9] was more than 100 µM throughout.

As to `C1C[OH+]CC[OH+]CC[OH+]CC[OH+]CC[OH+]CC[OH+]1.[Cl-].[Ta+5]`, the GI50 in test [1] was more than 100 µM; in [2], more than 100 µM; in test [3], 23.8 µM; in test [5], more than 100 µM; in [6], more than 100 µM; in test [7], more than 100 µM. Moreover, the GI50 in test [8] and in test [9] was more than 100 µM each time. The TGI in test [1], in [2], in [3], in test [5], in test [6] and in test [7] was more than 100 µM each time. Also, the TGI in [8] and in [9] was more than 100 µM in each case.

For `COc1ccc(-c2[nH]ncc2-c2cc(OC)c(OC)c(OC)c2)cc1`, the GI50 in test [1] was 0.0308 µM; in test [10], less than 0.01 µM; in [2], less than 0.01 µM; in [3], less than 0.01 µM; in test [5], less than 0.01 µM; in [8], less than 0.01 µM. Further, the GI50 in test [9] is 0.0147 µM. In addition, the TGI in [1] was 4.66 µM; in test [10] it was 19.5 µM; in test [2] it was 0.0551 µM; in test [3], 21 µM; in [5] it was 20.5 µM; in [6] it was more than 50.3 µM. Besides, the TGI in test [8] worked out at 6.11 µM; in test [9], 19.2 µM.

With `C=C(C(=O)OC)[C@@H]1C[C@@H](O)[C@]2(C)CC/C=C(\C)CCC[C@H](C)[C@H](O)C1O2`, the GI50 in test [1] was 18.7 µM; in [2], 26.3 µM; in test [3], more than 100 µM; in [4], 55.9 µM; in [5], more than 100 µM; in test [6], more than 100 µM. Moreover, the values for the GI50 in test [8] and in test [9] were 51.4 µM and 73 µM, respectively. Also, the TGI in test [1] is 46.5 µM; in [2], 79.5 µM; in [3] it was more than 100 µM; in test [4] it was more than 100 µM; in test [5] it was more than 100 µM; in test [6], more than 100 µM. In addition, the TGI in [8] and in [9] was more than 100 µM in each case.

`CCOC(=O)C1(C(=O)OCC)CC=C(C)CC12C(=O)Nc1ccccc12` (stereo unspecified): the TGI in test [1], in [2], in [3], in [4], in test [5] and in [7] was more than 100 µM in each case. Further, the TGI in test [8] and in test [9] was more than 100 µM each time.

On to `C=CCC(C)(C(=O)NCCC)C(=O)c1ccccc1O` (stereo unspecified), for which the TGI in [1], in test [10], in [2], in test [3], in test [5] and in [6] was more than 100 µM throughout. Besides, the TGI in test [7], in test [8] and in [9] was more than 100 µM throughout.

As to `CCCCCCCCCC(=O)N[C@H]1CCc2cc(OC)c(OC)c(OC)c2-c2ccc(SC)c(=O)cc21`, the TGI in [1] was more than 100 µM; in test [2], 0.0826 µM; in test [4], 9.55 µM; in test [5], 0.0678 µM; in test [6], 13.9 µM; in test [7], 0.223 µM. The TGI in test [8] is 0.0618 µM; in test [9], 0.0563 µM.

For the molecule `Cc1cccc(N2C(=O)C(=O)C(c3nc4ccccc4s3)C(=O)C2=O)c1C`, the TGI in [1], in test [10], in test [2], in test [3], in [4] and in test [5] was more than 100 µM in each case. Moreover, the TGI in [6], in [8] and in test [9] was more than 100 µM each time.

Regarding `COc1cccc(C2C(C#N)=C(N)Oc3cc(OC)ccc32)c1` (stereo unspecified), the GI50 in test [1] was 0.0598 µM; in test [10], 0.0256 µM; in [2], 0.0455 µM; in test [3], 0.0263 µM; in test [5], 0.0478 µM; in [6] it was 1.1 µM. Besides, the GI50 in test [7] is 0.0263 µM; in test [8] it was 0.0419 µM; in test [9], 0.0594 µM. Besides, the TGI in test [1] is more than 37.4 µM; in test [10], more than 33.8 µM; in test [2], 1.69 µM; in [3], more than 49.6 µM; in test [6] it was more than 83.9 µM; in [7], 0.077 µM. This molecule yielded a TGI in [8] of more than 100 µM.

Regarding `O=C1CCC(=O)C12CCc1cccc(O)c12`, the TGI in [3], in test [4], in [5], in test [7], in test [8] and in test [9] was more than 100 µM throughout.

With `COP1(=S)OCC2CCC[C@@H]2O1` (stereo partly specified), the TGI in [1], in test [10], in test [2], in test [3], in [6] and in test [7] was more than 100 µM in each case. Further, the TGI in [8] and in test [9] was more than 100 µM each time.

With `CC1=N/C(=C\c2cccc3ccccc23)C(=O)O1`, the TGI in test [1], in [2], in [4], in test [6], in [7] and in [8] was more than 100 µM each time. The TGI in test [9] was more than 100 µM.

As for `COc1ccc(Nc2c[nH]c(=O)[nH]c2=O)cc1`, the TGI in test [1], in test [2], in [3], in test [4], in test [5] and in [6] was more than 100 µM in each case. Further, the TGI in test [7], in [8] and in test [9] was more than 100 µM in each case.
